Measurements: patent US20130283403A1, “ZEBRAFISH SEIZURE MODEL, METHOD FOR ES[…] SAME, AND METHOD FOR SCREENING ANT[…] USING THE SAME” (NATIONAL CHENG KUNG UNIVERSITY, priority 2012, published 2013)

Key:
[1] = tested on: ginkgotoxin-induced zebrafish seizure model; test: Screening for drugs using the ginkgotoxin-induced zebrafish seizure model; assay type: in vivo, zebrafish (Dania rerio, AB strain); conditions: for rescuing effect: zebrafish at six hours post fertilization treated for 3 days, FIGS. 4A and 4B
Experimental: (§1) A solution of the ginkgotoxin is stored below −20° C. The ginkgotoxin concentrate of 40 mM is added to a fish water to keep the concentrations between 0.2 mM and 1 mM while the zebrafish seizure model is induced. The zebrafish is incubated in the fish water without ginkgotoxin for the control group.
(§2) Pyridoxal-5′-phosphate and GABA stock solution of 40 mM are used when measuring the response of zebrafish embryos seizure model with respect to effects of ant-convulsant drugs. Anticonvulsant drugs, such as gabapentin, phenyloin, and primidone, are dissolved in DMSO to make 100 mM concentration. During experiments, anticonvulsant drugs and ginkgotoxin are added to the fish water simultaneously, or the anticonvulsant drugs are added to the fish water three hours before the zebrafish behaviors are recorded and analyzed. This will be described in detail in the following.
(§3) The swimming behavior of zebrafish were was observed directly by naked eyes to determine the test results, and a quantified standard is made by a swimming distance and velocity of the zebrafish. At least 10 zebrafish were used for each group.
(§4) Besides, the zebrafish embryos are placed in 200 μl fish water in a concave on microscope slide. Herein, the zebrafish embryos are observed and recorded under a high-resolution dissecting microscope (Panasonic Digital video camera, DMC-FX55GT). Further, each condition, such as the swimming distance and velocity, of zebrafish are analyzed and quantified by a locomotion tracking system (EthoVision XT8.0 locomotion tracking system® (Noldus Information Technology, Inc., Leesburg, Va., USA)). The zebrafish is incubated in the fish water without ginkgotoxin for the control group.
Herein, GABA, PLP, gabapentin and phenyloin are used to perform experiments. The zebrafish embryos are incubated in fish water without ginkgotoxin represented as a “control group”; the zebrafish embryos are treated with ginkgotoxin represented as “GT”; the zebrafish embryos are treated simultaneously with ginkgotoxin and PLP of 0.5 mM represented as “GT+PLP”; the zebrafish embryos are treated simultaneously with ginkgotoxin and GABA of 0.5 mM represented as “GT+GABA”; the zebrafish embryos are treated simultaneously with ginkgotoxin and gabapentin of 1 mM represented as “GT+gabapentin”; the zebrafish embryos are treated simultaneously with ginkgotoxin and phenyloin of 1 mM represented as “GT+phenyloin”. The results are shown in FIGS. 2A to 4B, wherein, FIG. 2A and FIG. 2B are results showing that zebrafish at 3 days post fertilization of the example are treated for 2 hours; FIG. 3A and FIG. 3B are results showing that zebrafish at 5 days post fertilization of the example are treated for 2 hours; FIG. 4A and FIG. 4B are results that zebrafish at 6 hours post fertilization of the example were treated for 3 days. These indicate aggrevated seizure and convulsion when the swimming distance is longer and swimming velocity is faster transitorily.
Here, a comparison between the zebrafish seizure model induced by PTZ and one induced by ginkgotoxin is drawn. Wherein, the zebrafish embryos incubated in fish water without ginkgotoxin represented as a “control group”; the zebrafish embryos only treated with ginkgotoxin represented as “GT”; the zebrafish embryos treated only with PTZ of 0.5 mM represented as “PTZ”; the zebrafish embryos treated simultaneously with ginkgotoxin and DMSO represented as “GT+DMSO”; the zebrafish embryos treated simultaneously with PTZ and DMSO represented as “PTZ+DMSO”; the zebrafish embryos treated simultaneously with ginkgotoxin and gabapentin of 2 mM represented as “GT+gabapentin”; the zebrafish embryos treated simultaneously with PTZ and phenyloin of 2 mM represented as “PTZ+phenyloin”; the zebrafish embryos treated simultaneously with GT and folic acid of 1 mM represented as […]; the zebrafish embryos treated simultaneously with PTZ and folic acid of 1 mM is indicated as “PTZ+folic acid”. […]

zebrafish larvae = test: Establishing the zebrafish seizure model with ginkgotoxin; assay type: in vivo, zebrafish (Dania rerio, AB strain)
Experimental: as §1, §3, §4
To induce seizures, the zebrafish larvae at 5 days post fertilization (5-dpf) are placed in fish water containing ginkgotoxin of various concentrations (0.2 mM to 1 mM) and ecorded and analyzed 2 hours later. […]

[2] = tested on: PTZ-induced zebrafish seizure model; test: Zebrafish seizure model induced by PTZ; assay type: in vivo, zebrafish (Dania rerio, AB strain); conditions: model induced by PTZ 0.5 mM, FIGS. 5A and 5B
Experimental: as §2, §3
as §4, with “group. […]” for “group.”

[3] = tested on: PTZ-induced zebrafish seizure model; conditions: current experimental data; cited from earlier work
[4] = 0.5 mM added simultaneously with ginkgotoxin 0.5 mM, FIGS. 2A to 4B
[5] = 1 mM added simultaneously with ginkgotoxin 0.5 mM, regardless of embryonic stage, FIGS. 2A to 4B

Row | Compound | conditions of seizure and convulsion (swimming distance and velocity) [1, 4] | rescuing effect ([1]; 0.5 mM with ginkgotoxin) | conditions of seizure and convulsion (swimming distance and velocity) [1, 5] | rescuing effect ([1]; 1 mM with ginkgotoxin) | other results
1 | NCCCC(=O)O [GABA, gamma-aminobutyric acid] | alleviated with a greater extent | most obvious signs of rescuing effect | – | – | –
2 | Cc1ncc(COP(=O)(O)O)c(C=O)c1O [PLP, Pyridoxal-5′-phosphate] | alleviated with a greater extent | most obvious signs of rescuing effect | – | – | –
3 | NCC1(CC(=O)O)CCCCC1 [gabapentin] | – | – | alleviated with greater extent | most obvious signs of rescuing effect | –
4 | COCc1c(CO)cnc(C)c1O [ginkgotoxin, 4-O-methylpyridoxine] | – | – | – | – | lower dose at which the zebrafish seizure model can be established (zebrafish larvae; 5-dpf larvae, after incubating for 2 hours, FIG. 1B): 0.2 mM; concentration at which the zebrafish seizure model can be established steadily (zebrafish larvae; zebrafish larvae at 5 days post fertilization, in fish water, FIGS. 1A and 1B): 0.5 mM; state of zebrafish treated with ginkgotoxin (swimming distance and velocity) ([1]; 0.5 mM, 3 dpf or 5 dpf treated 2 hours, 6 hpf treated 3 days, FIGS. 2A to 4B): states of seizure or convulsion
5 | O=C1NC(=O)C(c2ccccc2)(c2ccccc2)N1 [phenyloin] | – | – | alleviated with greater extent | most obvious signs of rescuing effect | –
6 | CCC1(c2ccccc2)C(=O)NCNC1=O [primidone] | – | – | – | – | detection as antiepileptic or anti-convulsion drug (seizure stage 0/I/II) [2]: could not be accomplished; response of the PTZ-induced seizure model to the drug [3]: does not respond; detection as antiepileptic or anti-convulsion drug (seizure stage 0/I/II) ([1]; model induced by ginkgotoxin, FIGS. 5A and 5B): enable to screen out
